Assay results taken from ChEMBL document CHEMBL5390220, “SAR study of niclosamide derivatives for neuroprotective function in SH-SY5Y neuroblastoma” (Bioorg Med Chem Lett, 2023).
The source made the active and inactive calls. The rule behind the calls is not given here.

Key:
Assay type in all cases: functional, cell-based
SH-SY5Y [1] = assay: Neuroprotective activity against human SH-SY5Y cells assessed as inhibition of p53 expression incubated for 24 hrs in presence of MG132 by Western blot analysis
SH-SY5Y [2] = assay: Neuroprotective activity against human SH-SY5Y cells assessed as reduction in cyclin D expression incubated for 24 hrs in presence of MG132 by Western blot analysis
SH-SY5Y [3] = assay: Neuroprotective activity against human SH-SY5Y cells assessed as inhibition of CHOP expression incubated for 24 hrs in presence of MG132 by Western blot analysis
SH-SY5Y [4] = assay: Neuroprotective activity against human SH-SY5Y cells assessed as reduction in cleaved PARP level incubated for 24 hrs in presence of MG132 by Western blot analysis
SH-SY5Y [5] = assay: Neuroprotective activity against human SH-SY5Y cells assessed as reduction in protein ubiquitination level incubated for 24 hrs in presence of MG132 by Western blot analysis

Row | Compound | inhibition (SH-SY5Y [1]) | Activity (SH-SY5Y [2]) | inhibition (SH-SY5Y [3]) | Activity (SH-SY5Y [4]) | Activity (SH-SY5Y [5])
1 | O=C(Nc1ccc([N+](=O)[O-])cc1Cl)c1ccccc1O | Active | Active | Active |  | 
2 | Nc1ccc(NC(=O)c2ccccc2O)cc1 | inactive |  |  |  | 
3 | [N-]=[N+]=Nc1ccc(NC(=O)c2cc(Cl)ccc2O)c(Cl)c1 | Active | Active | Active | Active | Active
4 | O=C(Nc1ccc([N+](=O)[O-])cc1)c1cc(Cl)ccc1O | Active | Active | Active | Active | Active
5 | O=C(Nc1ccc(C(F)(F)F)cc1Cl)c1cc(Cl)ccc1O | Active | Active | Active | Active | Active
6 | O=C(Nc1ccc([N+](=O)[O-])cc1Cl)c1cc(Cl)ccc1O | Active |  | Active | Active | Active
7 | O=C(Nc1ccc([N+](=O)[O-])cc1Cl)c1ccccc1 |  |  |  |  | inactive
8 | CC(=O)Oc1ccc(Cl)cc1C(=O)Nc1ccc([N+](=O)[O-])cc1Cl | Active | Active | Active |  | Active
9 | O=C(Nc1ccccc1)c1cc(Cl)ccc1O | inactive |  |  |  | 
10 | CC(=O)Nc1ccc(NC(=O)c2cc(Cl)ccc2OC(C)=O)c(Cl)c1 | inactive | inactive | inactive | inactive | inactive
